Active and inactive are the calls of the source. How the calls were made is not given here.
Tested on: Crimean-Congo hemorrhagic fever virus L protein ovarian tumor domain protease (vOTU)
Experiment: PubChem AID 743499
Settings: purified CCHFV vOTU, di-Ub K63 fluorescence cleavage, stronger effect = higher value

Cc1ccc2c(c1C)-c1c(ccc(C)c1C)C(=O)C2=O
inhibition (at 18.9 µM): 55.7%

Cc1ccc(N2C(=O)[C@@H]3[C@H](C2=O)C2c4ccccc4C=CN2[C@@H]3C(=O)c2ccco2)cc1 (stereo partly specified)
inhibition (at 5.2 µM): 31.4%

NS(=O)(=O)c1ccc(NC2=CC(=O)C(=O)c3ccccc32)cc1
inhibition (at 11.51 µM): 44.4%

O=C(c1ccco1)[C@@H]1[C@@H]2C(=O)N(c3ccc(Br)cc3)C(=O)[C@@H]2C2c3ccccc3C=CN21 (stereo partly specified)
inhibition (at 11.01 µM): 59.9%

CC1(C)C=C2C(=NN(c3ccccc3)C(N)=C2C#N)CO1
inhibition (at 23.49 µM): 76.2%

O=C(/C=C/c1ccc(O)cc1)c1ccc(NC2=C(N3CCCCC3)C(=O)c3ccccc3C2=O)cc1
inhibition (at 10.17 µM): 38.1%

COc1cc(NC(=O)COC(=O)c2ccc([N+](=O)[O-])s2)cc(OC)c1OC
inhibition (at 21.72 µM): 82.2%

CC1COCC(C)N1C1=C(Cl)C(=O)c2ccccc2C1=O (stereo unspecified)
inhibition (at 14.67 µM): 24.6%

COC1=C(N)C(=O)c2nc(C)ccc2C1=O
inhibition (at 4.98 µM): 53.1%

O=C1Cc2ccccc2C(=O)N1CCc1ccccc1
inhibition (at 3.02 µM): 11.1% (inactive)

Cc1c(Cl)cnc(NC(=O)COC(=O)c2ccc([N+](=O)[O-])s2)c1Cl
inhibition (at 20.44 µM): 76.2%

O=C(NC1=C(NC2CCS(=O)(=O)C2)C(=O)c2ccccc2C1=O)c1ccccc1 (stereo unspecified)
inhibition (at 14.2 µM): 43.9%

O=C(COC(=O)c1ccc([N+](=O)[O-])s1)Nc1ccc(F)cc1
inhibition (at 26.34 µM): 99.5%

CC1CCCC(NC(=O)COC(=O)c2ccc([N+](=O)[O-])s2)C1C (stereo unspecified)
inhibition (at 31.32 µM): 43.6%

COc1cc(Br)c(C(=O)c2nccc3cc(OC)c(OC)cc23)cc1OC
inhibition (at 1.13 µM): 21%

O=C1Cc2ccccc2C(=O)N1
inhibition (at 0.6 µM): 39.2%

Cc1ccccc1-c1cc2c(nn1)-c1ccccc1C2=O
inhibition (at 4.5 µM): 14.8% (inactive)

O=c1[nH]c(Nc2ccccc2)cc2cc(Br)ccc12
inhibition (at 1.45 µM): 22%

CCOC(=O)N=Nc1c2ccccc2c2nc3no[nH]c3nc12
inhibition (at 7.75 µM): 24.5%

O=C(COC(=O)c1ccc([N+](=O)[O-])s1)Nc1ncc(C(F)(F)F)cc1Cl
inhibition (at 27.79 µM): 68.2%

CCc1cc[n+](C2=C(NS(=O)(=O)c3cccs3)C(=O)c3ccccc3C2=O)cc1
inhibition (at 14.16 µM): 50.9%

CN(C1=C(NC(=O)c2ccccc2)C(=O)c2ccccc2C1=O)C1CCS(=O)(=O)C1 (stereo unspecified)
inhibition (at 19.18 µM): 27.5%

COC(CNC(=O)c1ccc2c3c(onc13)-c1ccccc1C2=O)OC
inhibition (at 24.19 µM): 46%

Nc1cc2c(cc1Br)[nH]c(=O)c1ccccc12
inhibition (at 4.57 µM): 4.29% (inactive)

O=C(COC(=O)c1ccc([N+](=O)[O-])s1)NCc1ccc(F)cc1
inhibition (at 40.58 µM): 70%

O=C1Cc2ccccc2C(=O)N1Cc1ccccc1
inhibition (at 1.31 µM): 37.1%

O=C1C=C(Nc2ccccc2)c2ccccc2C1=O
inhibition (at 15.55 µM): 89.1%

Cn1nc(-c2ccccn2)nc2c(=O)n(C)c(=O)nc1-2
inhibition (at 1.16 µM): 75.7%

NC1=C(Cl)C(=O)c2ccc(S(N)(=O)=O)cc2C1=O
inhibition (at 0.39 µM): 50.5%

NS(=O)(=O)c1ccc(NC(=O)COC(=O)c2ccc([N+](=O)[O-])s2)cc1
inhibition (at 29.01 µM): 94.1%

Cc1ccc(NC2=CC(=O)C(=O)c3ccccc32)cc1
inhibition (at 12.24 µM): 103%

O=C(NC1=CC(=O)c2ccccc2C1=O)c1ccccc1
inhibition (at 12.37 µM): 33.4%

O=C(OCc1nnc(-c2ccccc2)o1)c1ccc([N+](=O)[O-])s1
inhibition (at 26.04 µM): 99.5%

COc1ccc2noc3c2c1C(=O)c1ccccc1-3
inhibition (at 6.28 µM): 27.6%

CCn1nc(/C=C/c2ccccc2)nc2c(=O)n(C)c(=O)nc1-2
inhibition (at 0.49 µM): 96.1%

COc1ccccc1NC(=O)COC(=O)c1ccc([N+](=O)[O-])s1
inhibition (at 35.07 µM): 84.1%

From PubChem BioAssay AID743499 (The Scripps Research Institute Molecular Screening Center, 2014)
